In publication PMC8519569 (Science Advances, 2021):

Target: T1, PatA (Mycolicibacterium smegmatis, UniProt A0QWG5)
T1 sequence (A0QWG5 1-304): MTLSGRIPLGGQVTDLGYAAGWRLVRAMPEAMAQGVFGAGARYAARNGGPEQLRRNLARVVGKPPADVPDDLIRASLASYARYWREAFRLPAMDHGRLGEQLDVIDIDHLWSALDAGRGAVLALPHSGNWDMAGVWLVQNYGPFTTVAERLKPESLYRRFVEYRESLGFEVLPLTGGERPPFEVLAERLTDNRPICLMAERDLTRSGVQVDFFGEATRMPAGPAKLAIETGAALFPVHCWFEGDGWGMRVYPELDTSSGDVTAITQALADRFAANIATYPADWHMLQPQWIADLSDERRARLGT
Experiment: isothermal titration calorimetry
Assay type: binding

Kd: 7.18 µM
Structure (SMILES): CCCCCCCCCCCCCCCCSCCNC(=O)CCNC(=O)[C@H](O)C(C)(C)COP(=O)(O)OP(=O)(O)OC[C@H]1O[C@@H](n2cnc3c(N)ncnc32)[C@H](O)[C@@H]1OP(=O)(O)O [S-C16-CoA, S-hexadecyl-CoA]
